# Data reported in publication PMC5327789 (Journal of natural products, 2016).
# Key:
# [1] = test system: P. falciparum strain Dd2 (chloroquine-resistant); experiment: P. falciparum in vitro growth inhibition assay; type: cell-based, Plasmodium falciparum; details: for antiplasmodial activity in words: highest concentration tested 25 μM
# [2] = test system: WI-38 cell line (normal embryonic lung tissue); type: cell-based
molecule,measurement,setting,value
"C=C1[C@@H]2C[C@@H]2[C@]2(C)[C@@H]3CC4=C5[C@H](/C(=C(\C)C(=O)OC)C(=O)[C@H](O)[C@@]5(C)[C@@H]5C[C@H]45)[C@@]34OC(=O)C(C)=C4C[C@@H]12 [Compound 32, shizukaol A]",antiplasmodial activity in words,[1],micromolar range
"COC(=O)/C(C)=C1/C(=O)[C@H](O)[C@]2(C)C3=C(C[C@@H]4[C@]5(OC(=O)C6=C5C[C@H]5[C@](O)(COC(=O)/C=C(\C)COC(=O)CCC(=O)OC6)[C@H]6C[C@H]6[C@]45C)[C@H]31)[C@H]1C[C@H]12 [Compound 7, Fortunilide G]",decrease of mammalian cytotoxicity compared with counterpart,"[2]; human, 24 h",5 fold
shizukaol C [Compound 17],IC50,"[1]; read-out: P. falciparum IC50, Table 6",21 nM
same,IC50,"[2]; read-out: WI-38 IC50, WI-38 cell line, 24 h incubation",770 nM
"COC(=O)/C(C)=C1\C(=O)[C@H](O)[C@]2(C)C3=C(C[C@@H]4[C@]5(OC(=O)C(C)=C5C[C@H]5[C@H](COC(C)=O)[C@H]6C[C@H]6[C@]45C)[C@H]31)[C@H]1C[C@H]12 [Compound 25, shizukaol E]",antiplasmodial activity in words,[1],micromolar range
"C/C=C(\C)C(=O)OC[C@]1(O)[C@H]2C[C@H]2[C@]2(C)[C@@H]3C[C@@]4(O)C5=C(/C(=C(\C)C(=O)OC)C(=O)[C@H](O)[C@@]5(C)[C@@H]5C[C@@H]54)[C@@]34OC(=O)C(COC(C)=O)=C4C[C@@H]12 [Compound 27, sarcandrolide E]",antiplasmodial activity in words,[1],inactive
"COC(=O)/C(C)=C1\C(=O)[C@H](O)[C@]2(C)C3=C(C[C@@H]4[C@]5(OC(=O)C6=C5C[C@H]5[C@](O)(COC(=O)/C(C)=C/COC(=O)[C@@H](O)CC(=O)OC6)[C@H]6C[C@H]6[C@]45C)[C@H]31)[C@H]1C[C@H]12 [Compound 29, shizukaol G]",increase of toxicity toward mammalian cells compared with counterpart,"[2]; human, 24 h",~ 10 fold
"COC(=O)CCC(=O)OC/C(C)=C/C(=O)OC[C@]1(O)[C@H]2C[C@H]2[C@]2(C)[C@@H]3C[C@@]4(OO)C5=C(/C(=C(\C)C(=O)OC)C(=O)[C@H](O)[C@@]5(C)[C@@H]5C[C@@H]54)[C@@]34OC(=O)C(CO)=C4C[C@@H]12 [Compound 4, Fortunilide D]",increase of toxicity toward mammalian cells compared with counterpart,"[2]; human, 24 h",6 fold
